≈ marks a conversion by molar mass, not a printed value.
Tests used:
[1] = tested on: isolated rabbit aorta rings; contraction induced by angiotensin II (AII); experiment: Inhibition of vascular contraction in isolated rabbit aorta rings induced by angiotensin II (AII); type: cell-based; conditions: Oryctolagus cuniculus; isolated rabbit aorta rings in vitro, 37° C.; based on 3rd = submaximal agonist concentration; read-out: IC50 against contractions induced by AII
Method: Investigation of the inhibition of the contraction induced by agonists
Rabbits of either sex are stunned by a blow to the back of the head and bled out, or in some cases anaesthetised with Nembutal (about 60-80 mg/kg i.v.) and sacrificed by opening the thorax. The thorax aorta is removed, freed from adhering connective tissue, divided into ring segments 1.5 mm wide and individually transferred under an initial loading of about 3.5 g to 10 ml organ baths containing Krebs-Henseleit nutrient solution, which is temperature-controlled at 37° C. and aerated with 95% O2 /5% CO2, of the following composition: 119 mmol/l of NaCl; 2.5 mmol/l of CaCl2 ×2H2 O; 1.2 mmol/l of KH2 PO4; 10 mmol/l of glucose; 4.8 mmol/l of KCl; 1.4 mmol/l of MgSO4 ×7 H2 O and 25 mmol/l of NaHCO3.
The contractions are detected isometrically by Statham UC2 cells by means of bridge amplifiers (ifd Mulheim or DSM Aalen) and digitalised and assessed by means of A/D converters (System 570, Keithley Munich). Agonist dose response curves (DRC) are plotted hourly. With each DRC, 3 or 4 individual concentrations are applied to the baths at a 4 min interval. After the end of the DRC and subsequent washing-out cycles (16 times in each case about 5 sec/min with the abovementioned nutrient solution), a 28-minute rest or incubation phase follows, during which the contractions as a rule reach the starting value again.
The height of the 3rd DRC, in a normal case, is used as a reference variable for the assessment of the test substance to be investigated in further runs, which is applied to the baths in the following DRCs in increasing doses in each case at the start of the incubation period. Each aorta ring is in this case stimulated for the whole day, always with the same agonist.
Agonists and their standard concentrations (application
For the calculation of the IC50 (concentration at which the substance to be investigated causes a 50% inhibition), the effect is in each case based on the 3rd=submaximal agonist concentration.

angiotensin II receptor = target: T1, angiotensin II receptor (Bos taurus, UniProt P25104); experiment: Interaction with the angiotensin II receptor in membrane fractions of the adrenal gland cortex (bovine), 3H-angiotensin II binding; conditions: 3H-angiotensin II 3-5 nM, 60 min at room temperature, read-out: Ki, specific binding of 3H-angiotensin II
T1 construct: partially purified membrane fractions of bovine AGC using radioactive angiotensin II; from tissue; host or cells: bovine adrenal gland cortex, partially purified membrane fractions
T1 sequence (P25104 1-359): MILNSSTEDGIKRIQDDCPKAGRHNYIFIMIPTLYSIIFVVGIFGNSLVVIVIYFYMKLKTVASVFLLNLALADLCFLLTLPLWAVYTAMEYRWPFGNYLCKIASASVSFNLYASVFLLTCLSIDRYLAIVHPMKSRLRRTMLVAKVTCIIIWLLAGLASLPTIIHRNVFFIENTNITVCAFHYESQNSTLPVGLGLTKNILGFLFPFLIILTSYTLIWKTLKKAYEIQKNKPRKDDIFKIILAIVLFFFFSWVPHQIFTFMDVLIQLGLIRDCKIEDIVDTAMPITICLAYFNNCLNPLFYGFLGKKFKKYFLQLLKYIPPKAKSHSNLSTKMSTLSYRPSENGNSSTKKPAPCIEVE
Text: Interaction of the compounds according to the invention with the angiotensin II receptor in membrane fractions of the adrenal gland cortex (bovine)
Bovine adrenal gland cortices (AGC), which have been freshly removed and carefully freed from gland medulla, are comminuted in sucrose solution (0.32M) with the aid of an Ultra-Turrax (Janke & Kunkel, Staufen i.B.) to give a coarse membrane homogenate and partially purified in two centrifugation steps to give membrane fractions. The receptor binding investigations are carried out on partially purified membrane fractions of bovine AGC using radioactive angiotensin II in an assay volume of 0.25 ml, which specifically contains the partially purified membranes (50-80 μg), ^3 H-angiotensin II (3-5 nM), test buffer solution (50 mM Tris, pH 7.2, 5 mM MgCl2) and the substances to be investigated. After an incubation time of 60 min at room temperature, the unbound radioactivity of the samples is separated by means of moistened glass fibre filters (Whatman GF/C) and the bound radioactivity is measured […] in a scintillation cocktail after washing the protein with ice-cold buffer solution (50 mM Tris/HCl, pH 7.4, 5% PEG 6000). The analysis of the raw data was carried out using computer programs to give Ki or IC50 values (Ki : IC50 values corrected for the radioactivity used; IC50 values: concentration at which the substance to be investigated causes a 50% inhibition of the specific binding of the radioligand).

smooth muscle cells = experiment: Inhibition of the proliferation of smooth muscle cells (3H-thymidine incorporation); type: cell-based, rats or pigs; conditions: 10^-6 M, stimulated with AII, serum or other factors
Method: Investigation of the inhibition of the proliferation of smooth muscle cells by the compounds according to the invention
To determine the antiproliferative action of the compounds, smooth muscle cells are used which are obtained from aortas of rats or pigs by the media explant technique [R. Ross, J. Cell. Biol. 50, 172, 1971]. The cells are inoculated into suitable culture dishes, as a rule 24-hole plates, and cultured at 37° C. for 2-3 days in medium with addition of serum, 2 mmol L-glutamine and 15 mmol HEPES, pH 7.4 in 5% CO2. The cells are then synchronised by withdrawal of serum for 2-3 days and then stimulated into growth with AII, serum or other factors. Test compounds are simultaneously added. […]

| IC50 [1] [µg/mL] | Ki (angiotensin II receptor) [µM] | Compound | inhibition at 1 µM (smooth muscle cells) [%] |
| --- | --- | --- | --- |
| 0.23 (≈ 0.528 µM) | 0.042 | CCCCc1cc2ccccc2c(=O)n1Cc1ccc(-c2ccccc2-c2nnn[nH]2)cc1 [Example 2, 3-Butyl-2-{[2'-(tetrazol-5-yl)-biphenyl-4-yl]methyl}-isoquinolin-1(2H)-one] |  |
| 0.84 (≈ 2.06 µM) | 0.75 | CCc1cc2ccccc2c(=O)n1Cc1ccc(-c2ccccc2-c2nnn[nH]2)cc1 [Example 4, 3-Ethyl-2-{[2'-(tetrazol-5-yl)-biphenyl-4-yl]methyl}-isoquinolin-1(2H)-one] |  |
| > 1 | 2 | O=c1c2ccccc2cc(-c2ccccc2)n1Cc1ccc(-c2ccccc2-c2nnn[nH]2)cc1 [Example 6, 3-Phenyl-2-{[2'-(tetrazol-5-yl)-biphenyl-4-yl]methyl}-isoquinolin-1(2H)-one] | 70 |
